Where “and” joins values, the source holds several entries; their conditions need not be identical. Equal entries are not always repeated.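 In this assay, cells in 96-well plates receive the compound at five concentrations for 48 hours. Endpoints are linearly interpolated between the surrounding concentrations. GI50 = concentration required for 50% inhibition of growth. TGI denotes the concentration required for complete inhibition of growth.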
Experiments:
Experiment in all cases: DTP human tumour cell line panel, 48 h
RXF 393 renal = test system: RXF 393 renal
SF-539 CNS = test system: SF-539 CNS
HOP-62 NSCLC = test system: HOP-62 NSCLC
SF-295 CNS = test system: SF-295 CNS
SR leukemia = test system: SR leukemia
A549 NSCLC = test system: A549 NSCLC
SN12C renal = test system: SN12C renal
K-562 leukemia = test system: K-562 leukemia
ACHN renal = test system: ACHN renal
HCT-15 colon = test system: HCT-15 colon

SMILES | TGI (RXF 393 renal) [µM] | TGI (SF-539 CNS) [µM] | TGI (HOP-62 NSCLC) | TGI (SF-295 CNS) [µM] | TGI (SR leukemia) [µM] | TGI (A549 NSCLC) [µM] | TGI (SN12C renal) | TGI (K-562 leukemia) | TGI (ACHN renal) [µM] | TGI (HCT-15 colon) | GI50 (RXF 393 renal) | GI50 (SF-539 CNS) | GI50 (HOP-62 NSCLC) [µM] | GI50 (SF-295 CNS) | GI50 (SR leukemia) [µM] | GI50 (A549 NSCLC) | GI50 (SN12C renal) [µM] | GI50 (K-562 leukemia) | GI50 (ACHN renal) [µM] | GI50 (HCT-15 colon)
COc1c(OC)c(OC)c(-c2cc(=O)c3c(OC)c(OC)c(OC)c(OC)c3o2)c(OC)c1OC | 81.2 | > 100 | > 100 µM | > 100 | > 100 | > 100 | > 100 µM | > 100 µM | > 100 | > 100 µM |  |  |  |  |  |  |  |  |  | 
CCN(CC)CCNC(=O)C(Cl)=C1C(Cl)=C(Cl)C(Cl)=C1Cl | 15.9 | 53.1 | 15.5 µM | 29.3 | > 100 | 76.9 | 49.8 µM | > 100 µM | 24.6 | 12.7 µM | 3.76 µM | 4.33 µM | 3.94 | 5.39 µM | 3.36 | 4.22 µM | 4.03 | 3.56 µM | 3.35 | 2.78 µM
N/C(=N\C(N)=N\c1nc2ccccc2s1)c1ccnc(Br)c1 | 27.1 | 95 | 57.2 µM | > 100 | > 100 | > 100 | > 100 µM | > 100 µM | > 100 | > 100 µM | 2.81 µM | 4.67 µM | 3.65 | 4.25 µM | 2.9 | 22.1 µM | 5.57 | 3.46 µM | 5.22 | 3.92 µM
O=C(c1ccccc1)c1c2n(c3c1cc(O)c1ccccc13)CCN2 | 27.1 | 6.04 | 17.9 µM | 20.8 | 3.46 | 35.5 | 4.21 µM | 8.2 µM | 33.1 | 19.1 µM | 11.1 µM | 2.39 µM | 5.6 | 7.11 µM | 1.06 | 14.2 µM | 2 | 2.56 µM | 13.5 | 6.5 µM
Cc1cc2nc3c4cc([N+](=O)[O-])ccc4n(CCN(C)C)c3nc2cc1C | 2.21 | 2.56 | > 40 µM | 1.79 | 5.1 | 3.67 | > 54.8 µM | > 100 µM | 1.68 | 3.04 µM | 0.65 µM | 0.469 µM | 0.579 | 0.388 µM | 0.253 | 0.397 µM | 0.448 | 0.366 µM | 0.297 | 0.36 µM
O=C1c2ccccc2-c2ccccc2C1(Cl)Cl | 3.2 | 3.23 | 2.64 µM | 3 | 8.71 | 3.21 | 2.98 µM | 5.46 µM | 3.53 | 4.25 µM | 1.78 µM | 1.71 µM | 1.13 | 1.27 µM | 2.71 | 1.49 µM | 1.45 | 0.43 µM | 1.72 | 1.81 µM
O=Cc1cn(S(=O)(=O)c2ccccc2)c2ccccc12 | > 100 | > 100 | > 100 µM | > 100 | 67.1 | > 100 | > 100 µM | 50 µM | > 100 | > 100 µM |  |  |  |  |  |  |  |  |  | 
CC(O)c1ccc(C(O)/C(=N\NC(=O)c2ccncc2)c2nc3ccc([N+](=O)[O-])cc3[nH]c2=O)cc1 (stereo not given) | > 100 | > 100 | > 100 µM | > 100 | > 100 | > 100 | > 100 µM | > 100 µM | > 100 | > 100 µM |  |  |  |  |  |  |  |  |  | 
Oc1[nH]c2ccccc2c1/C=c1/ccc2c(c1)N=C(c1cc(F)cc(F)c1)N=2 | 25 | 31.4 | 25.2 µM | 10.9 | 9.21 | 23.7 | 30 µM | 13.8 µM | 21.3 | 14.1 µM | 8.2 µM | 13.6 µM | 10.4 | 2.84 µM | 2.43 | 4.65 µM | 11.4 | 3.28 µM | 7.39 | 3.52 µM
CC(=O)Nc1ccc(Cc2ccc3[nH]c(=O)cc(C)c3c2)cc1 | > 100 | > 100 | > 100 µM | > 100 | > 100 | > 100 | > 100 µM | > 100 µM | > 100 | > 100 µM |  |  |  |  |  |  |  |  |  | 
CNC(=O)c1cc(Oc2ccc3nc(NC(=O)Nc4cc(C(F)(F)F)cc(C(F)(F)F)c4)sc3c2)ccn1 | 2.99 | 2.8 | 2.8 µM | 2.41 | 2.6 | 2.67 | 3.79 µM | 4.86 µM | 1.98 | 3.31 µM | 1.25 µM | 1.24 µM | 1.15 | 1.08 µM | 0.514 | 1.3 µM | 1.64 | 0.784 µM | 0.542 | 1.5 µM
O=[P+](O)c1cccnc1 | > 100 | > 100 | > 100 µM | > 100 | > 100 | > 100 | > 100 µM | > 100 µM | > 100 | > 100 µM |  |  |  |  |  |  |  |  |  | 
C=CNC(=S)n1nc(-c2ccccc2NC(=O)C(F)(F)F)c(=O)n(C(=S)NC=C)c1=S | > 100 | > 1 | 86 µM | 81.6 | 73.7 | > 1 | > 100 µM | > 100 µM | > 100 | > 100 µM |  |  |  |  |  |  |  |  |  | 
CCCCC1N=CNc2c1ccc1c2[nH]c2ccccc21 (stereo not given) | 2.16 | 7.91 | 9.97 µM | 7.25 | 4.66 | 10.6 | 7.8 µM | 5.4 µM | 5.45 | 4.72 µM |  |  |  |  |  |  |  |  |  | 
NCCCCCCCCCn1c2c(c3ccccc3c1=O)C(=O)c1ccccc1-2 | 24.3 | 19.3 | 16.2 µM | 20.8 | > 50 | > 50 | 18.4 µM | 32.3 µM | 17 | 16.2 µM | 10.2 µM | 9.83 µM | 6.84 | 9.67 µM | 1.55 | 9.75 µM | 8.48 | 7.42 µM | 8.2 | 6.03 µM
Nc1nc(-c2ccc3ccccc3c2)cc(-c2cc(-c3ccc4ccccc4c3)nc(N)n2)n1 | > 100 | > 100 | > 100 µM | > 100 | > 100 | > 100 | > 100 µM | > 100 µM | > 100 | > 100 µM |  |  |  |  |  |  |  |  |  | 
COc1ccc2c(c1)C(=O)c1c-2c(OCCN2CCCCC2)nc2ccc(OC)cc12 | 11 | 12.4 | 11.2 µM | 15.2 | 1.25 | 2.16 | 10.1 µM | 2.76 µM | 3.26 | 2.63 µM | 1.9 µM | 0.693 µM | 0.595 | 0.529 µM | 0.235 | 0.674 µM | 0.429 | 0.413 µM | 0.425 | 0.54 µM
C=C(C)C1CCC2(C(=O)O)CCC3(C)C(CCC4C5(C)CCC(O)C(C)(C)C5CCC43C)C12 (stereo not given) | 5.99 | 16.7 | 27.6 µM | 23.6 | 27.6 | 24.1 | 26.1 µM | 27.3 µM | 21.1 | 23.5 µM |  |  |  |  |  |  |  |  |  | 
Clc1ccc(Nc2ncnc3c2sc2ncccc23)c(Cl)c1 | > 100 | 7.37 | > 19.7 µM | > 100 | > 100 | > 100 | > 100 µM | > 100 µM | 3.95 | > 100 µM | 0.0492 µM | 0.0225 µM | < 0.01 | 0.0309 µM | < 0.0187 | < 0.01 µM | 0.126 | 0.27 µM | < 0.01 | 0.052 µM
C/C(CC(=O)Nc1cccc(C)c1C)=N\NC(N)=S | > 100 | > 100 | > 100 µM | > 100 | 56.5 | > 100 | > 100 µM | > 100 µM | > 100 | > 100 µM |  |  |  |  |  |  |  |  |  | 
COC(=O)[C@H](C)[C@@H]1CC[C@](C)(CCC2=C(C)CCCC2(C)C)OO1 | > 25 | > 25 | > 25 µM | > 25 | > 25 | > 25 | > 25 µM | > 25 µM | > 25 | > 25 µM |  |  |  |  |  |  |  |  |  | 
Cn1c(=O)c(-c2c(Cl)cccc2Cl)cc2cnc(Nc3ccc(I)cc3)nc21 | 15 | 0.114 | 0.668 µM | 1.41 | < 0.01 | 19.4 | 2.37 µM | < 0.01 µM | 0.712 | 9.42 µM | 2.44 µM | < 0.0146 µM |  | 0.147 µM | < 0.01 | 3.72 µM | 0.505 | < 0.01 µM |  | 2.87 µM
Nc1nc(Cl)nc2c1ncn2C1OC(CO)C(O)C1O (stereo not given) | > 100 | > 100 | > 100 µM | > 100 | > 100 | > 100 | > 100 µM | > 100 µM | > 100 | > 100 µM | > 100 µM | > 90.1 µM | 3.36 | > 100 µM | 8.92 | 4.41 µM | 0.899 | > 85.3 µM | 3.98 | 7.57 µM
[Au+].c1c[n-]cn1.c1ccc([PH+](c2ccccc2)c2ccccc2)cc1 | 2.66 | 10.8 | 43 µM | 26.6 | 9.48 | 42.6 | 27.4 µM | 30.4 µM | 17.6 | 15.8 µM | 1.3 µM | 4.38 µM | 6.24 | 11.8 µM | 2.54 | 11.7 µM | 10.3 | 2.61 µM | 6.19 | 3.42 µM
CCN(CC)CC(O)c1cc(-c2ccc(Cl)cc2)nc2cc(Cl)ccc12 (stereo not given) | 7.32 | 4.63 | 4.05 µM | 3.37 | 3.52 | 3.63 | 12.7 µM | 3.55 µM | 3.39 | 9.26 µM | 2.75 µM | 2.03 µM | 1.93 | 1.81 µM | 1.69 | 1.9 µM | 2.96 | 1.75 µM | 1.64 | 3.05 µM
CC(C)(N)C(=O)N[C@@H]1C(=O)N2[C@@H]1SC(C)(C)[C@@H]2C(=O)O | > 100 | > 100 | > 100 µM | > 100 | > 100 | > 100 | > 100 µM | > 100 µM | > 100 | > 100 µM |  |  |  |  |  |  |  |  |  | 
O=C(Nc1ccc(Cl)cc1)c1cc2ccccc2cc1OP(=O)(O)O | 71.1 | 19.2 | 17 µM | 31.9 | > 100 | > 100 | > 100 µM | > 100 µM | 49.3 | > 100 µM | 6.64 µM | 4.4 µM | 3.57 | 8.6 µM | 23.7 | 4.85 µM | 3.4 | 53.8 µM | 3.04 | 3.55 µM
CCC1OC(=O)CC(O)C(C)C(OC2OC(C)CC(N(C)C)C2O)C(CC=O)CC(C)C(=O)/C=C/C2(C)OC2C1C (stereo not given) | 56.1 | 29.6 | 71.7 µM | 77.1 | 36.6 | > 100 | 39.1 µM | 24.3 µM | 56.1 | 39.1 µM |  |  |  |  |  |  |  |  |  | 
COC1C(C)OC(OC2CC(C)(O)Cc3cc4c(c(O)c32)C(=O)c2c(O)cc3c(c2C4=O)OC2OC3(C)C(O)C(N(C)C)C2O)C(OC)C1(C)OC (stereo not given) |  |  | 0.921 µM and 0.347 µM |  |  |  | 6.12 µM and 6.56 µM | 1.94 µM and 1.51 µM |  | 9.85 µM and 15.2 µM | 0.0548 µM and 0.0191 µM | 0.038 µM and 0.0171 µM |  | 0.0538 µM and 0.0356 µM | 0.0114 | 0.0835 µM and 0.0476 µM |  | 0.0272 µM and 0.0636 µM | 0.216 | 0.641 µM and 0.494 µM

Reference: PubChem BioAssay (NCI)
